From patent EP0046712A1, “Fluorinated diaminobutane derivatives” (MERRELL TORAUDE ET COMPAGNIE, priority 1980, dated 1982) come the findings set out here.

Where two headings read alike, the source gives them in different places.

Assay type in all cases: in vivo
One data set has as its target T1, GABA-T (Mus musculus, UniProt P61922).
T1 construct: The brains are removed from the dead mice and are divided into two portions by sagittal section; from tissue; host or cells: brain of male albino CD1 mice dosed i.p. for four days
The data set is described as follows: GABA-T activity in brain of mice after daily i.p. dosing for four days. To be noted: ip, four consecutive days, 24 hours after the last dose; for inhibition at 5 mg/kg: daily dose 5 mg/kg i.p.; for inhibition at 10 mg/kg: daily dose 10 mg/kg i.p. As for the experimental part:
(§1) A group of 10 male albino CDI mice from Charles Riner, France, is given an i.p. injection of the test compound in aqueous solution daily for four consecutive days. Half of the animals are killed by decapitation 24 hours after the last dose of the test compound. The other half of the animals are observed for up to 12 days for toxicity (as indicated by weight loss and deaths). Control animals receive an injection of the vehicle only.
(§2) The brains are removed from the dead mice and are divided into two portions by sagittal section. One half is used for the measurement of GABA-T activity while the other half is used for measuring GABA content. The GABA-T activity is measured using known methods as dessribed by M.Jung et al., J. Neurochem., 28, 717 (1977) and 29, 797 (1977). GABA content is measured by perchloric acid or trichloroacetic acid extracts using an amino acid analyzer equiped with a fluorescene detector.

Data set [1] relates to GABA concentration in the brain. The data set is described as follows: GABA content in brain of mice after daily i.p. dosing for four days. The following applies: four consecutive days, 24 hours after the last dose. As to the method:
as §1, §2

The nature of data set [2]: Toxicity (weight loss and deaths) in mice after daily i.p. dosing for four days. To be noted: four consecutive days, observed for up to 12 days; for Morality (After treatment) / mortality at 288 h: deaths per 5 mice; for mortality at 288 h: mouse, in vivo, ip, read-out: Morality (After treatment) (converted). As for the experimental part:
as §1

Data set [3] relates to clonic seizures induced by an i.v. challenge of (+)-bicuculline. Put plainly: Protection of mice against clonic seizures induced by i.v. (+)-bicuculline. To be noted: for ED50: Mus musculus, ip, single dose, protection against bicuculline-induced clonic seizures.

A word on the inhibition: it is the change of the read-out against control, counted positive when it falls. A low value points to a response near the control. The term ED50 denotes the dose that gives a 50% effect, or the effect in half of the subjects. High values mean a need for a large dose, low ones an effect at a small dose.

T1 sequence (P61922 29-500): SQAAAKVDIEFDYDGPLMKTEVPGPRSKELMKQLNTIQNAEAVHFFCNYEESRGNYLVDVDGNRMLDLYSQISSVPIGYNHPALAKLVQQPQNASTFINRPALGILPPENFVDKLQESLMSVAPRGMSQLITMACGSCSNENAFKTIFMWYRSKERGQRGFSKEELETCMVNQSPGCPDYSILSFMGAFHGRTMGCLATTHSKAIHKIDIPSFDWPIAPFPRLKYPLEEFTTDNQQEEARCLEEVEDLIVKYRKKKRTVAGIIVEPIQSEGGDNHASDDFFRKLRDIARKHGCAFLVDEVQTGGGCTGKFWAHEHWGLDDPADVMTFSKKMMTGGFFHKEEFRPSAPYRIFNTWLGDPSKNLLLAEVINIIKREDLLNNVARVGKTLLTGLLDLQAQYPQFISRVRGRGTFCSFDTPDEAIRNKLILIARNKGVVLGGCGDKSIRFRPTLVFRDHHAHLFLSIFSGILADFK

Take `NCCC(N)C(F)F` (stereo not drawn) [DFDB, 1,1-difluoro-2,4-diaminobutane]: 2 mg/kg produced 69.5% inhibition at GABA-T (daily dose 2 mg/kg i.p.). This molecule returned an inhibition at 5 mg/kg on GABA-T of 71.4%. This molecule also yielded an inhibition at 10 mg/kg against GABA-T of 81%. At GABA-T (daily dose 20 mg/kg i.p.), this molecule gave an inhibition at 20 mg/kg of 96.7%. For the same molecule, the figures for the GABA content elevation in data set [1] (daily dose 5 mg/kg i.p.), in data set [1] (daily dose 10 mg/kg i.p.) and in data set [1] (daily dose 20 mg/kg i.p.) were 200%, 275% and 465%, respectively. Moreover, the “Morality (After treatment)” value in data set [2] (daily dose 2 mg/kg i.p.) and in data set [2] (daily dose 5 mg/kg i.p.) was 0/5 throughout. Moreover, the “Weight Loss” value in data set [2] (daily dose 2 mg/kg i.p.) and in data set [2] (daily dose 5 mg/kg i.p.) was 0% throughout. For the same molecule, the mortality at 288 h in data set [2] (daily dose 10 mg/kg i.p.) was 60%; in data set [2] (daily dose 20 mg/kg i.p.), 100%. The same molecule had a median effective dose (ED50) in data set [3] of 4.2 mg/kg. Also, the “% of Animals Blocked” value is 20% in data set [3] (single dose 3 mg/kg i.p.), 45% in data set [3] (single dose 4 mg/kg i.p.), 90% in data set [3] (single dose 6 mg/kg i.p.) and 95% in data set [3] (single dose 8 mg/kg i.p.).
`NCCC(N)CF` (stereo not drawn) [MFDB, 1-fluoro-2,4-diaminobutane] had an inhibition at 5 mg/kg at GABA-T of 39.7%. In addition, at GABA-T, at 10 mg/kg the inhibition was 49.8%. The same molecule returned an inhibition at 25 mg/kg against GABA-T (daily dose 25 mg/kg i.p.) of 74%. Also, at 50 mg/kg the inhibition at GABA-T (daily dose 50 mg/kg i.p.) was 79%. Further, the GABA content elevation in data set [1] (daily dose 5 mg/kg i.p.) came to 190%; in data set [1] (daily dose 10 mg/kg i.p.) it was 200%; in data set [1] (daily dose 25 mg/kg i.p.), 470%; in data set [1] (daily dose 50 mg/kg i.p.), 465%. Also, the “Morality (After treatment)” value in data set [2] (daily dose 5 mg/kg i.p.) and in data set [2] (daily dose 10 mg/kg i.p.) was 0/5 throughout. Moreover, the “Weight Loss” value in data set [2] (daily dose 5 mg/kg i.p.) and in data set [2] (daily dose 10 mg/kg i.p.) was 0% throughout. The mortality at 288 h in data set [2] (daily dose 25 mg/kg i.p.) was 40%; in data set [2] (daily dose 50 mg/kg i.p.), 60%. The ED50 in data set [3] came to 65 mg/kg. For the same molecule, the “% of Animals Blocked” value in data set [3] (single dose 42 mg/kg i.p.) is 20%; in data set [3] (single dose 51 mg/kg i.p.) it was 40%; in data set [3] (single dose 59 mg/kg i.p.), 50%; in data set [3] (single dose 68 mg/kg i.p.), 55%; in data set [3] (single dose 84 mg/kg i.p.), 60%; in data set [3] (single dose 100 mg/kg i.p.) it was 60%.
